Measurements taken from patent publication US20080254042A1, “Novel Use of Prrp and Receptor Thereof” (Takeda Pharmaceutical Company Limited, priority 2004, published 2008).

Assays:
[1] = Catecholamine level in the striatum after MPTP, PrRP knockout vs wild-type mice; type: in vivo, mouse; conditions: seven days after final administration, FIG. 3
Method: MPTP or saline for control was administered to PrRP knockout mice and wild-type mice in a manner similar to EXAMPLE 1. Seven days after the final administration, the striatal sites were immediately excised from the brains, frozen in liquid nitrogen and then stored at −80° C. Catecholamines such as Dopamine (DA), DOPAK, HVA, etc. were measured as follows. First, the excised corpus striata were homogenized in 0.2M perchloric acid containing 100 ng/mL isoproterenol (Sigma), centrifuged at 15,000 g for 20 minutes at 0° C., and filtered through a 0.22 μm filter. The final solution, 10 μL, was separated under the conditions at flow rate of 0.5 mL/min in 83% 0.1 M acetic acid-citrate buffer (pH 3.5)/17% methanol solution containing 190 mg/L SDS and 5 mg/L EDTA-2Na through EICOMPAK SC-50DS column (3.0 mm×150 mm, EICOM), and determined by electrochemical detection.

[2] = Motor activity assessed with a rotarod after MPTP, PrRP knockout vs wild-type mice; type: in vivo, mouse; conditions: FIG. 2
Method: In order to examine the relation of Parkinson's disease to PrRP, decrement of motor activities known as symptoms of Parkinson's disease induced by administration of MPTP was compared between PrRP knockout mice and wild-type mice. The motor activity of each mouse was assessed with a rotarod. […] Turning to the PrRP knockout mice, there was no difference between the group administered with MPTP and the group administered with saline for control, and the motor activity was normal (FIG. 2). These phenomena reveal that onset of Parkinson's disease induced by MPTP was suppressed in the PrRP knockout mice.

[3] = test system: striatal dopamine nerve fibers; assay: TH-positive fiber density in the striatum, MPTP after intraventricular antibody; conditions: C57BL/6J mice given normal mouse IgG i.c.v., then MPTP 20 mg/kg i.p. 4 times every 2 hours; P<0.05; FIG. 5
Description: (§1) Male C57BL/6J mouse (CLEA Japan) of 14 weeks old was fixed on a brain stereotaxic apparatus under anesthesia with pentobarbital (Dainippon Pharmaceutical) and the skull surface was exposed. After the skull was dried with a drier, the coordinates of bregma were located to determine the coordinates of the left lateral ventricle (AP: −0.2 mm, lateral: +1.0 mm, depth: +2.5 mm from bregma). After a burr hole was made with a dental drill on the skull across the bregma from the location of the left lateral ventricle, anchor screws (EICOM) were implanted to fix a dental cement (GC Corp., Unifast II). A hole was made with a dental drill (Urawa Corp., Model: UC100) for guide cannulation to vertically insert into the skull on the left lateral ventricle, and a guide cannula (EICOM) was eased down toward the ventricle. After leakage of cerebrospinal fluids was confirmed, the guide cannula was fixed on the coordinates determined. The dental cement was used for fixation and applied until the anchor screws were embedded. After it was confirmed that the cement was dried, the mouse was released from the stereotaxic apparatus. […]
(§2) The antibody solution was diluted in Centriprep (Millipore). Absorbance (280 nm) was measured to determine the antibody concentration, and the antibody was diluted in aseptic PBS (−) to 9.97 mg/mL. […]

nigral dopamine cells [4] = assay: Number of TH-positive cells in the substantia nigra pars compacta, MPTP after intraventricular antibody; conditions: C57BL/6J mice given normal mouse IgG i.c.v., then MPTP 20 mg/kg i.p. 4 times every 2 hours; P<0.001; FIG. 4
Description: as §1, §2

nigral dopamine cells [5] = assay: Number of tyrosine hydroxylase positive (dopamine) cells in the substantia nigra after MPTP, PrRP knockout vs wild-type mice; type: in vivo, mouse; conditions: FIG. 1
Description: It is known that MPTP (methyl-phenyl-tetrahydropyridine) causes degenerative loss of nigral dopamine cells to induce Parkinson's disease. Thus, the brains were excised from PrRP knockout mice and wild-type mice, to which MPTP or saline for control was given as in EXAMPLE 1, and then immersed and fixed in a 0.07M phosphate buffer (pH 7.4) containing 5% acrolein (Tokyo Chemical Industry). The brains were then immersed in 30% sucrose-containing phosphate buffered saline (PBS) for more than 2 days. The free-floating technique was used for immunohistochemistry. A frozen frontal section in 40 μm thickness of the brain was prepared using a cryomicrotome. Next, the section was soaked in and washed with PBS for water immersion, then treated with 0.5% sodium metaperiodate-containing PBS (20 minutes) to inactivate the endogenous peroxidase activity, and the aldehyde group was reduced by treatment with 1% sodium borohydride-containing PBS (20 minutes). In addition, non-specific reactions were blocked by treatment with 1% normal horse serum and 0.4% Triton X-100-containing BPS (TNBS) (an hour). […] The number of tyrosine hydroxylase positive cells, which are dopamine cells in the substantia nigra, was counted under an optical microscope.

[6] = test system: PrRP knockout mice and wild-type mice; assay: Survival of PrRP knockout and wild-type mice after MPTP administration; type: in vivo, mouse; conditions: MPTP i.p. every 2 hours 4 times at 20 μg/kg, five days after administration
Method: MPTP (methyl-phenyl-tetrahydropyridine) known to produce animal models of Parkinson's disease was intraperitoneally administered to PrRP knockout mice and wild-type mice every 2 hours 4 times at the dose of […]. Five days after the administration, 11 out of 21 wild-type mice survived with a survival rate of 52%, whereas 10 out of 10 PrRP knockout mice survived, meaning that there was no dead animal and the survival rate was 100%.

CN1CC=C(c2ccccc2)CC1 [MPTP]
striatal dopamine (DA), DOPAC and HVA levels after MPTP ([1]; PrRP knockout mice): the degree of the decrease was smaller
striatal dopamine (DA), DOPAC and HVA levels after MPTP ([1]; wild-type mice): decreased markedly
motor activity (rotarod), MPTP group vs saline group ([2]; PrRP knockout mice): no difference
motor activity (rotarod), MPTP group vs saline group ([2]; wild-type mice): markedly decreased
striatal dopamine nerve fibers (image analysis), vs saline group [3]: significant decrease
dopamine cells in the substantia nigra pars compacta, vs saline group (nigral dopamine cells [4]): significant decrease
decrease in number of tyrosine hydroxylase positive cells in the substantia nigra, MPTP group vs saline group (nigral dopamine cells [5]; PrRP knockout mice, no significant change): about 10%
decrease in number of tyrosine hydroxylase positive cells in the substantia nigra, MPTP group vs saline group (nigral dopamine cells [5]; wild-type mice, significant): about 60%
survival rate ([6]; PrRP knockout mice, 10 out of 10 survived): 100%
survival rate ([6]; wild-type mice, 11 out of 21 survived): 52%
